Source: article PMC5995566 (Biochemistry, 2017)
No end group written: not given here.

Legend:
[1] = target: human S100A6 (hA6) (Homo sapiens, UniProt P06703); experiment: ITC of peptide binding to human S100A6; details: single-site model
[2] = target: T1, human S100A5 (hA5) (Homo sapiens, UniProt P33763); experiment: ITC of peptide binding to human S100A5; details: 2 mM CaCl2, pH 7.4
T1 sequence (P33763 1-92): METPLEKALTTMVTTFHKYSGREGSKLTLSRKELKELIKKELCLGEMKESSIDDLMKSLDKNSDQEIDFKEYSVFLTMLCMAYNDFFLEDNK

[3] = test system: hA5 A83m; experiment: ITC of peptide binding to hA5 A83m mutant; set-up: species or system Homo sapiens; details: single ancestral reversion in hA5
[4] = test system: S100A6 orthologs; experiment: ITC of peptide binding to S100A6 orthologs; details: 2 mM CaCl2, pH 7.4
[5] = test system: ancA6 (last common ancestor of S100A6 orthologs); experiment: ITC of peptide binding to reconstructed ancestor ancA6

## SEGLMNVLKKIYEDGDDDMKRTINKAWVESR [SIP]
[1]; ITC fit parameter, same buffer
  fx comp: 1.5 ± 0.1
[1]; ITC, 25 mM TES, 100 mM NaCl, 2 mM CaCl2, 1 mM TCEP, pH 7.4, Bayesian fit
  ΔH°: 2.9 ± 0.3 kcal/mol
[2]
  binding to hA5 (in words): did not bind
[3]
  binding to hA5 A83m (in words): enabled it to bind
[4]
  binding to all S100A6 orthologs (in words): bound
[5]
  binding to ancA6 (in words): binding
